Measured values taken from patent US8012959B2, “Diaminopyrimidinecarboxamide derivative” (Astellas Pharma Inc., priority 2002, dated 2011).
Counter-ions that a name gives are not always drawn.

Columns and labels:
[1] = biological target: T1, STAT 6 (Mus musculus, UniProt P52633); test: STAT 6-dependent reporter activity (IL-4-stimulated CI/FW4 luciferase reporter cell); assay type: cell-based, human; conditions: for inhibition at 0.1 µM / Inh (%) 0.1 μM: inhibition ratio at 0.1 μM compound; for inhibition at 0.1 µM / inhibition at 1 µM / Inh (%) 0.1 μM / Inh (%) 1 μM: IL-4-stimulated CI/FW4 cell, luciferase; for inhibition at 1 µM / Inh (%) 1 μM: inhibition ratio at 1 μM compound; for inhibition of STAT 6-dependent reporter activity (activity similar to the compounds of Table 26): CI/FW4 cell, 10 ng/ml human IL-4, luciferase
T1 construct: An STAT 6 reporter cell CI/FW4 was constructed by the above operation; endogenous in cells; host or cells: CI/FW4 (FW4 cell stably carrying the pGL2-CI/bs luciferase reporter)
T1 sequence (P52633 1-837): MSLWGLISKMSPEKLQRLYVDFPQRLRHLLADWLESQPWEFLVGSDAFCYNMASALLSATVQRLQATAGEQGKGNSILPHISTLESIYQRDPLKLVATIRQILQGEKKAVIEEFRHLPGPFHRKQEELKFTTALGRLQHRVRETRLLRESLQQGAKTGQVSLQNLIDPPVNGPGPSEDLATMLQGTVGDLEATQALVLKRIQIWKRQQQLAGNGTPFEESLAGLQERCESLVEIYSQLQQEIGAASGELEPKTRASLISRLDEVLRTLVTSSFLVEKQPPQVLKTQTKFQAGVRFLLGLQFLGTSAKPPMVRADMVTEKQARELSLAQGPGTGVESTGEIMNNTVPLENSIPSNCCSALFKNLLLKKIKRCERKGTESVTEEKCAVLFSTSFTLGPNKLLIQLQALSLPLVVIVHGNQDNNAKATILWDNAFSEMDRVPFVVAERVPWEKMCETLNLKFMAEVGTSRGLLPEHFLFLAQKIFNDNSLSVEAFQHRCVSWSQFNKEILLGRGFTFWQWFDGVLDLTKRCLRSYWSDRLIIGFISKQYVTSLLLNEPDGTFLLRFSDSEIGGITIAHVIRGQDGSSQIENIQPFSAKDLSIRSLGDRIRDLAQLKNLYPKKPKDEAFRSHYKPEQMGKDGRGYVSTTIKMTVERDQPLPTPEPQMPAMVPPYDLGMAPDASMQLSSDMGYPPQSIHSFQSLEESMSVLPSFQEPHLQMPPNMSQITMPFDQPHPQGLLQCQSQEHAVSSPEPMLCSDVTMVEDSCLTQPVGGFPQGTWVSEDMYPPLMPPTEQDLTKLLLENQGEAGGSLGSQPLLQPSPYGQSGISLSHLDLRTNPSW
Procedure: Measurement of STAT 6-Dependent Reporter Activity 1) Construction of STAT 6 Reactive Reporter Plasmid A STAT 6 reporter plasmid pGL2-CI was prepared by the following method. […] Also, […] sequence DNA molecules (SEQ ID NOs:3 and 4) contained in the adenovirus major late promoter were annealed and inserted into BglII and HindIII sites of the same vector. Thereafter, pGL2-CI/bs was constructed by inserting the blasticidin resistance gene of pUCSV-BD (Funakoshi) into BamHI site of the constructed pGL2-CI. 2) Construction of STAT 6 Reporter Cell Gene transfer of […] into a human IL-4 reactive cell FW4 cell (Mol. Cell. Biol., 14: 5433-5440) was carried out by the electroporation method (320 V, 960 μF/0.4 cm cuvette (Nippon Bio-Rad Laboratories)), and 6 μg/ml of blasticidin (Funakoshi) was added 40 hours thereafter to select a resistant cell. Confirmation of constant transfer of the reporter plasmid was carried out by detecting luciferase induce by IL-4 stimulation. An STAT 6 reporter cell CI/FW4 was constructed by the above operation. 3) STAT Reporter Assay Using CI/FW4 Cell Stimulation of the CI/FW4 cell (1×10^4 cells/0.1 ml) with 10 ng/ml of human IL-4 (Genzyme Techne) was carried out using a white 96 well plate (Nunc). In the case of the evaluation of compounds, compound dilutions were added to the wells before inoculating the cells into the 96 well plate. […] Thereafter, 50 μl of a luciferase substrate solution (10 mM Tris-HCl pH 7.8, 5 mM luciferin, 2 mM coenzyme A, 2 mM ATP, 0.5 mM MgCl2 and 2 mM Mg(OH)2) was added, followed by stirring for 1 minute. Then, the luciferase activity was measured using ML3000 luminometer (Dynatech Laboratories, Inc). Inhibitory activities of tested compounds were evaluated in which the luminescence intensity (relative light unit: […] The results are shown in the following Table 26.

[2] = biological target: T2, STAT 6 (Homo sapiens, UniProt P42226); test: STAT 6 tyrosine phosphorylation in IL-4-stimulated H292 cell (western blotting); assay type: cell-based; conditions: 1 μM compound, 10 ng/ml human IL-4, disappearance of the about 110 kDa band
T2 construct: host or cells: H292
T2 sequence (P42226 1-847): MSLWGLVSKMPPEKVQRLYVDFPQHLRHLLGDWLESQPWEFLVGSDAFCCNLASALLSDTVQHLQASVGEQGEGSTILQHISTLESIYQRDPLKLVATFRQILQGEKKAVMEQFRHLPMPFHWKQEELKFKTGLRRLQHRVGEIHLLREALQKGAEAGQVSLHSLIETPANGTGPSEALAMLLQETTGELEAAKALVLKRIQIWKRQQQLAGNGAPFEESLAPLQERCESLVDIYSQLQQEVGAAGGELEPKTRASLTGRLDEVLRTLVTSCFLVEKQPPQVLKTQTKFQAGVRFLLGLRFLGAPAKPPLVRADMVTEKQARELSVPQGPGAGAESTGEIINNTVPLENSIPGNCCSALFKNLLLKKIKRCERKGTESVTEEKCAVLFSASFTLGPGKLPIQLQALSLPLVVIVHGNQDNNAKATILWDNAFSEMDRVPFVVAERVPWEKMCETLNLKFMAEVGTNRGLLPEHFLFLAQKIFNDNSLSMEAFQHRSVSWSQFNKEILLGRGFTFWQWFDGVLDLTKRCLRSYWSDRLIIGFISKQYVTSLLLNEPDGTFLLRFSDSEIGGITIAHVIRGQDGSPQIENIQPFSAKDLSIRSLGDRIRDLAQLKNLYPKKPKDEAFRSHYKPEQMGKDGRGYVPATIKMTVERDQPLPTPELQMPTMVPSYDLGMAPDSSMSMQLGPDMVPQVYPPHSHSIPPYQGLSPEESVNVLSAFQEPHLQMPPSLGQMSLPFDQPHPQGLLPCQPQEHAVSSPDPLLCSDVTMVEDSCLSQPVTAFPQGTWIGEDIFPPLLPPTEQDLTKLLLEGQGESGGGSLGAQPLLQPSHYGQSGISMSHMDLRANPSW
Procedure: Measurement of STAT 6 Tyrosine Phosphorylation
The H292 cell (ATCC) (5×10^5 cells/0.5 ml) was inoculated into a 12 well plate (IWAKI) and cultured overnight, and then stimulation with 10 ng/ml of human IL-4 (Genzyme techne) was carried out. In the case of the evaluation of compounds, compound dilutions were added to the wells 20 minutes before the IL-4 stimulation. Also, regarding the dilution of compounds, dilution was carried out using 10% FBS-containing RPMI 1640 such that the final concentration of DMSO in which each compound was dissolved became 0.1% or less. This was washed three times with ice-cooled physiological phosphate buffer 20 minutes after the IL-4 stimulation. After the washing, 100 μl/well of a cell lysis solution (TNE buffer: 10 mM Tris-HCl pH 7.8, 1% NP-40, 0.15 M NaCl, 1 mM EDTA, 10 μg/ml aprotinin, 1 mM NaF and 1 mM Na3VO4) was added. The cell lysate was recovered, and 15 μl thereof was subjected to western blotting after SDS electrophoresis using an anti-tyrosine phosphorylated STAT 6 antibody (Cell Signaling). Whether or not the tyrosine phosphorylation band of about 110 kDa is disappeared, which is IL-4 stimulation-dependently detected, was judged. Also, uniform transference of the STAT 6 protein was confirmed using the same transfer membrane by western blotting which used an anti-STAT 6 antibody (SantaCruz).

Row | inhibition at 0.1 µM [1] | inhibition at 1 µM [1] | Inh (%) 0.1 μM [1] | Inh (%) 1 μM [1] | inhibition of STAT 6-dependent reporter activity (activity similar to the compounds of Table 26) [1] | inhibition of STAT 6 tyrosine phosphorylation [2] | Structure (SMILES)
1 | 48% | 96% | – | – | – | – | CNC(=O)c1cnc(NCCc2cc(Cl)c(O)c(Cl)c2)nc1Nc1cccc(C)c1 [Example 2, 2-{[2-(3,5-dichloro-4-hydroxyphenyl)ethyl]amino}-N-methyl-4-[(3-methylphenyl)amino]pyrimidine-5-carboxamide]
2 | – | – | – | – | good activity | – | NC(=O)c1cnc(Nc2ccc(N3CCOCC3)cc2)nc1NCc1c(F)cccc1Cl [Example 58]
3 | – | – | 91% | 100% | – | – | CN(CC1CN(c2ccc(Nc3ncc(C(N)=O)c(NCc4ccccc4)n3)cc2)CCO1)S(C)(=O)=O.Cl (stereo not drawn) [Example 180]
4 | – | – | 100% | 100% | – | completely inhibited | COC1CCCN(c2ccc(Nc3ncc(C(N)=O)c(NCc4c(F)ccc(F)c4F)n3)cc2)C1.Cl.Cl (stereo not drawn) [Example 192]
5 | – | – | 100% | 100% | – | completely inhibited | Cl.Cl.NC(=O)CN1CCN(c2ccc(Nc3ncc(C(N)=O)c(NCc4c(F)ccc(F)c4F)n3)cc2)CC1 [Example 201]
6 | – | – | – | – | good activity | – | NC(=O)c1cnc(Nc2ccc(N3CCOCC3)c(F)c2)nc1NCc1ccccc1 [Example 239]
7 | – | – | 97% | 100% | – | – | NC(=O)c1cnc(Nc2ccc(N3CCOCC3)c(F)c2)nc1NCc1c(F)cccc1F [Example 244]
8 | 67% | 100% | – | – | – | – | Cc1cccc(Nc2nc(NCCc3ccc(O)c(Br)c3)ncc2C(N)=O)c1 [Production Example 1, 2-{[2-(3-bromo-4-hydroxyphenyl)ethyl]amino}-4-[(3-methylphenyl)amino]pyrimidine-5-carboxamide]

The next lines start with the compound.

Row | Structure (SMILES) | inhibition at 0.1 µM [1] | inhibition at 1 µM [1] | Inh (%) 0.1 μM [1] | Inh (%) 1 μM [1] | inhibition of STAT 6-dependent reporter activity (activity similar to the compounds of Table 26) [1] | inhibition of STAT 6 tyrosine phosphorylation [2]
9 | NC(=O)c1cnc(Nc2ccc(N3CCOCC3)cc2)nc1NCc1cc(Cl)ccc1F [Example 39] | – | – | 100% | 100% | – | –
10 | CN(C)CC(=O)N1CCN(c2ccc(Nc3ncc(C(N)=O)c(NCc4ccccc4)n3)cc2)CC1.Cl.Cl [Example 148] | – | – | 94% | 100% | – | completely inhibited
11 | CCOC(=O)CN1CCN(c2ccc(Nc3ncc(C(N)=O)c(NCc4c(F)ccc(F)c4F)n3)cc2)CC1 [Example 189] | – | – | 100% | 100% | – | completely inhibited
12 | NC(=O)c1cnc(Nc2ccc(N3CCN(CC(=O)O)CC3)cc2)nc1NCc1c(F)ccc(F)c1F [Example 190] | – | – | 100% | 100% | – | completely inhibited
13 | Cl.NC(=O)c1cnc(Nc2ccc(N3CCCOCC3)cc2)nc1NCc1c(F)ccc(F)c1F [Example 191] | – | – | 100% | 100% | – | completely inhibited
14 | NC(=O)c1cnc(Nc2ccc(OC3OC(CO)C(O)C(O)C3O)cc2)nc1NCc1c(F)ccc(F)c1F (stereo not drawn) [Example 233] | – | – | 25% | 100% | – | –
15 | Cc1cccc(Nc2nc(Nc3ccc(CN(C)C)cc3)ncc2C(N)=O)c1 [Production Example 9, 2-({4-[(dimethylamino)methyl]phenyl}amino)-4-[(3-methylphenyl)amino]pyrimidine-5-carboxamide dihydrochloride] | 33% | 91% | – | – | – | –
16 | NC(=O)c1cnc(Nc2ccc(N3CCOCC3)cc2)nc1NC1CCCCC1 [Production Example 12, 4-cyclohexylamino-2-[(4-morpholinophenyl)amino]pyrimidine-5-carboxamide] | 91% | 100% | – | – | – | –
